From patent US9738649B2 (priority 2006, dated 2017)
Structures can show the parent of a compound that is named as a salt.

Molecular target: rat TRPV1 (Rattus norvegicus (Rat), UniProt O35433)
Settings: read-out: Rat IC50
Protocol: Biological Testing: Functional Assay: Block of Capsaicin-Induced Ca^2+ Influx A. Human Assay
Cells were passaged frequently, every 3-5 days, to avoid overgrowth, depletion of essential medium components, or acidic medium exposure. Cells were passaged using a brief wash in 0.05% trypsin with 1 mM EDTA, followed by dissociation in divalent-free phosphate-buffered saline (Hyclone #SH30028.02). […] The assay buffer was composed of 130 mM NaCl, 2 mM KCl, 2 mM MgCl2, 10 mM HEPES, 5 mM glucose, and either 2 mM or 20 μM CaCl2. On the day of the experiment, the culture medium was replaced with 2 mM calcium assay buffer using an automated plate washer (ELx405; Biotek, VT). […] After loading the cells, the dye solution was replaced with 50 μL/well of 20 μM calcium assay buffer using the ELx405 plate washer. Test compounds (50 μL/well) were added to the plate and incubated for 30 min. […] The IC50 values were determined. […] The contents of the wells were mixed 3 times (40 μL mix volume) immediately after the additions were made. Concentration dependence of block was determined by exposing each well of cells in duplicate rows of a 96 well plate to a serial dilution of test compound. The concentration series usually started at 10 μM with a three-fold serial decrement in concentration. The magnitude of the capsaicin response was determined by measuring the change in fluo3 fluorescence before and 100 seconds after the addition of the agonist. Data were analyzed using a non-linear regression program (Origin; OriginLab, MA). IC50 values shown are the average (mean) of the results obtained.
The assay was performed as described above, using HEK293 cells transfected with rat TRPV1 (rTRPV1/HEK293). […] IC50 values shown are the average (mean) of the results obtained.

Sequence of rat TRPV1 (O35433 whole entry): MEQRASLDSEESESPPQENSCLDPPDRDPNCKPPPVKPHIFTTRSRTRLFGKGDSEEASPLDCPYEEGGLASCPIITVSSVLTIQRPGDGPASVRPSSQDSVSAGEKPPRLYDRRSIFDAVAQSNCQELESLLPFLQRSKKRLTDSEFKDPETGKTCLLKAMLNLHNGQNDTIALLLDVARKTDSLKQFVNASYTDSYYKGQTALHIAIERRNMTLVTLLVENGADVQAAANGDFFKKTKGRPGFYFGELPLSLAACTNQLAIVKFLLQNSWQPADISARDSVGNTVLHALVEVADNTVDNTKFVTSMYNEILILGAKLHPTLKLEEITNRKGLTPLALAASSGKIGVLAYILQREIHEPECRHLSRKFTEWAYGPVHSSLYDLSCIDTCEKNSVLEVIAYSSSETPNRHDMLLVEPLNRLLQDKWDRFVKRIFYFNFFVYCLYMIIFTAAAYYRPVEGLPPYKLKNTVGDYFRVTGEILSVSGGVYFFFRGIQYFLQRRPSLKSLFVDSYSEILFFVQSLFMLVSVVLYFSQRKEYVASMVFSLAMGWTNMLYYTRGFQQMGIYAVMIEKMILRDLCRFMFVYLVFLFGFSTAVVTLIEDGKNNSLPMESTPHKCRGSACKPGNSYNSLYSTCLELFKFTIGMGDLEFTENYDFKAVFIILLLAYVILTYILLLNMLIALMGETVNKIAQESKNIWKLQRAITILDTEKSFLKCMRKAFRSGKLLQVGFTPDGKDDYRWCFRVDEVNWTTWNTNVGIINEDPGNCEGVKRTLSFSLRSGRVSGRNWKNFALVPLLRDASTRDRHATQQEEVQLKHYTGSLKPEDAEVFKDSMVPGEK

Compound | IC50
CN(C)c1nc2c(c(Nc3ccc(C(F)(F)F)nc3)n1)CCN(c1ncccc1C(F)(F)F)CC2 [Example 43B, N^2,N^2-Dimethyl-N^4-(6-trifluoromethyl-pyridin-3-yl)-7-(3-trifluoro-methyl-pyridin-2-yl)-6,7,8,9-tetrahydro-5H-pyrimido[4,5-d]azepine-2,4-diamine trifluoroacetic acid salt] | 390 nM
O=C(O)C1CCN(c2nc3c(c(Nc4ccc(C(F)(F)F)cc4)n2)CCN(c2ncccc2C(F)(F)F)CC3)CC1 [Example 57B, 1-[4-(4-Trifluoromethyl-phenylamino)-7-(3-trifluoromethyl-pyridin-2-yl)-6,7,8,9-tetrahydro-5H-pyrimido[4,5-d]azepin-2-yl]-piperidine-4-carboxylic acid trifluoroacetic acid salt] | 5500 nM
FC(F)(F)c1ccc(Nc2nc(NCCN3CCCCC3)nc3c2CCN(c2ncccc2C(F)(F)F)CC3)cc1 [Example 58B, N^2-(2-Piperidin-1-yl-ethyl)-N^4-(4-trifluoromethyl-phenyl)-7-(3-trifluoro-methyl-pyridin-2-yl)-6,7,8,9-tetrahydro-5H-pyrimido[4,5-d]azepine-2,4-diamine trifluoroacetic acid salt] | 1500 nM
FC(F)(F)c1ccc(Nc2nc(NC3CCOCC3)nc3c2CCN(c2ncccc2C(F)(F)F)CC3)cc1 [Example 61B, N^2-(Tetrahydro-pyran-4-yl)-N^4-(4-trifluoromethyl-phenyl)-7-(3-trifluoro-methyl-pyridin-2-yl)-6,7,8,9-tetrahydro-5H-pyrimido[4,5-d]azepine-2,4-diamine trifluoroacetic acid salt] | 230 nM
CN(C)c1nc2c(c(NCc3ccc(Cl)c(Cl)c3)n1)CCN(c1ncccc1C(F)(F)F)CC2 [Example 73B, N^4-(3,4-Dichloro-benzyl)-N^2,N^2-dimethyl-7-(3-trifluoromethyl-pyridin-2-yl)-6,7,8,9-tetrahydro-5H-pyrimido[4,5-d]azepine-2,4-diamine trifluoroacetic acid salt] | 6700 nM
